Laboratory results as given in patent publication US9708318B2, “Bicyclic heterocycles as FGFR4 inhibitors” (Incyte Corporation, priority 2015, dated 2017).

How the values were obtained:
[1] = molecular target: FGFR2 (Homo sapiens (Human), UniProt P21802); test: FGFR Enzymatic Assay (FRET peptide phosphorylation), FGFR2; format: biochemical; conditions: pre-incubated for 4 hours
Method: (§1) The inhibitor potency of the exemplified compounds was measured in an enzyme assay that measures peptide phosphorylation using FRET measurements to detect product formation. Inhibitors were serially diluted in DMSO and a volume of 0.5 μL was transferred to the wells of a 384-well plate.
(§2) The enzymes were purchased from Millipore or Invitrogen.
(§3) GraphPad prism3 was used to analyze the data.

[2] = molecular target: FGFR3 enzyme (Homo sapiens (Human), UniProt P22607); test: FGFR Enzymatic Assay (FRET peptide phosphorylation), FGFR3; format: biochemical; conditions: pre-incubated for 4 hours; for FGFR1/FGFR3 IC50 ratio / FGFR4/FGFR3 IC50 ratio: FGFR3 selectivity; for IC50: read-out: FGFR3 IC50
Chain of FGFR3 enzyme (P22607 23-806): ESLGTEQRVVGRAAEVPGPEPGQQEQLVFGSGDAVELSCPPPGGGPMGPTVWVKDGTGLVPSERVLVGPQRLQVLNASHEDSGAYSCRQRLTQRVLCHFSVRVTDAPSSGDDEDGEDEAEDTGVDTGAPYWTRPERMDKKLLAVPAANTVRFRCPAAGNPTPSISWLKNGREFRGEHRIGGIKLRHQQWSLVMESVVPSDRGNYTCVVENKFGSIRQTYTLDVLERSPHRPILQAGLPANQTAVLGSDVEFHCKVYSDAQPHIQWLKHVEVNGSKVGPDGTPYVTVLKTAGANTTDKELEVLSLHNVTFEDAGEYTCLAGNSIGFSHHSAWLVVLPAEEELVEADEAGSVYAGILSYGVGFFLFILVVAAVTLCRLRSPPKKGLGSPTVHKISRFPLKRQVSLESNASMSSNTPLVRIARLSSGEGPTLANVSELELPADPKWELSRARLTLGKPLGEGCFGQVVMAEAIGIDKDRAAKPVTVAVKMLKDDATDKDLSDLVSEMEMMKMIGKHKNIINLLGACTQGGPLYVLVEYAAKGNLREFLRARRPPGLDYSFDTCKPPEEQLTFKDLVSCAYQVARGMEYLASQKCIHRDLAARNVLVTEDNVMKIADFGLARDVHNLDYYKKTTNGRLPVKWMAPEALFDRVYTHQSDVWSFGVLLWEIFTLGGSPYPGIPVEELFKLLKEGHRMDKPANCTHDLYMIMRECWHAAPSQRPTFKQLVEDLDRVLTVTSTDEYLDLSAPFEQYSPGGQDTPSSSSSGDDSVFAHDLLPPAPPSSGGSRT
Method: as §1, §3

[3] = molecular target: FGFR4 (Homo sapiens (Human), UniProt P22455); test: FGFR Enzymatic Assay (FRET peptide phosphorylation), FGFR4; format: biochemical; conditions: pre-incubated for 4 hours
Chain of FGFR4 (P22455 22-802): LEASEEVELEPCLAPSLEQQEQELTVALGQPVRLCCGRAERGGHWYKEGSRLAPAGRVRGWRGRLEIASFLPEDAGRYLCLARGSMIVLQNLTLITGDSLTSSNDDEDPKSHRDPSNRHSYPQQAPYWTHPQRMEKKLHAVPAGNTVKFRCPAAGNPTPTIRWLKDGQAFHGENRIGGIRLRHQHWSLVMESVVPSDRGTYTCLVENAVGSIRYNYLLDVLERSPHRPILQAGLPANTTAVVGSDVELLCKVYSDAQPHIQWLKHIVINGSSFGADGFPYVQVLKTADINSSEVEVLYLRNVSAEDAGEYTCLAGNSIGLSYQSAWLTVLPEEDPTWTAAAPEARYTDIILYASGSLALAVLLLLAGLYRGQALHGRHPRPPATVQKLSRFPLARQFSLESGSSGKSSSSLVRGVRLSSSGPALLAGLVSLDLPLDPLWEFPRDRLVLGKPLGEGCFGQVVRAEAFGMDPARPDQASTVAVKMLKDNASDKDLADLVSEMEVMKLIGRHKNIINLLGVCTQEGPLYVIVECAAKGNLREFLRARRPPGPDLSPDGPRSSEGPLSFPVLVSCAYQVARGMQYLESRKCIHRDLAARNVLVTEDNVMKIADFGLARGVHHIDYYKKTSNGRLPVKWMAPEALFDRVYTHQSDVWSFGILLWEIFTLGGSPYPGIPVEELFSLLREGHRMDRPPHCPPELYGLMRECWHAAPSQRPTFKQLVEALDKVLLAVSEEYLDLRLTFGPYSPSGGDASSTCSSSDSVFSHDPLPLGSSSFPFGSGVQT
Method: as §1, §2, §3

[4] = molecular target: FGFR1 (Homo sapiens (Human), UniProt P11362); test: FGFR Enzymatic Assay (FRET peptide phosphorylation), FGFR1; conditions: FGFR1 IC50 (nM), pre-incubated for 4 hours
Chain of FGFR1 (P11362 22-822): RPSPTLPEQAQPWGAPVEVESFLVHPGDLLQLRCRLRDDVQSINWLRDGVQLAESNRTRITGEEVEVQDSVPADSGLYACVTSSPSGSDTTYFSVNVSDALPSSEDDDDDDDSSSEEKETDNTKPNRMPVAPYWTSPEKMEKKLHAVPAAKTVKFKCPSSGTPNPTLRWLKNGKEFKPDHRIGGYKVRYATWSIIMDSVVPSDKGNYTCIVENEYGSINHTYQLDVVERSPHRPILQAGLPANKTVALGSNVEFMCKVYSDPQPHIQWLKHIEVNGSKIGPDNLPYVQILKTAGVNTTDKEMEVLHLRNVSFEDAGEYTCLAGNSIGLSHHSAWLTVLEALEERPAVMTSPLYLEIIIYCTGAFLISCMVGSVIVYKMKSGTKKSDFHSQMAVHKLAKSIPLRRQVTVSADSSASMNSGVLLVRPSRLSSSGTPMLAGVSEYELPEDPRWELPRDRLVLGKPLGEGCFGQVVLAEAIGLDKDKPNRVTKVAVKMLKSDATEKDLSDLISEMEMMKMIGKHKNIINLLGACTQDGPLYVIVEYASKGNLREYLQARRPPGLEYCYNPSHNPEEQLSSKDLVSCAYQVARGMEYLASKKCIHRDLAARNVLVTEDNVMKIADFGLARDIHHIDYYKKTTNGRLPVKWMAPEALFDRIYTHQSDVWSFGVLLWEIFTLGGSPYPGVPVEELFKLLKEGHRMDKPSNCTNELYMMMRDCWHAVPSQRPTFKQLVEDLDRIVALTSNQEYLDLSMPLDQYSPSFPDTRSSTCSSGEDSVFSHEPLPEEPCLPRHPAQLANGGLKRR

Chain of FGFR2 (P21802 22-821): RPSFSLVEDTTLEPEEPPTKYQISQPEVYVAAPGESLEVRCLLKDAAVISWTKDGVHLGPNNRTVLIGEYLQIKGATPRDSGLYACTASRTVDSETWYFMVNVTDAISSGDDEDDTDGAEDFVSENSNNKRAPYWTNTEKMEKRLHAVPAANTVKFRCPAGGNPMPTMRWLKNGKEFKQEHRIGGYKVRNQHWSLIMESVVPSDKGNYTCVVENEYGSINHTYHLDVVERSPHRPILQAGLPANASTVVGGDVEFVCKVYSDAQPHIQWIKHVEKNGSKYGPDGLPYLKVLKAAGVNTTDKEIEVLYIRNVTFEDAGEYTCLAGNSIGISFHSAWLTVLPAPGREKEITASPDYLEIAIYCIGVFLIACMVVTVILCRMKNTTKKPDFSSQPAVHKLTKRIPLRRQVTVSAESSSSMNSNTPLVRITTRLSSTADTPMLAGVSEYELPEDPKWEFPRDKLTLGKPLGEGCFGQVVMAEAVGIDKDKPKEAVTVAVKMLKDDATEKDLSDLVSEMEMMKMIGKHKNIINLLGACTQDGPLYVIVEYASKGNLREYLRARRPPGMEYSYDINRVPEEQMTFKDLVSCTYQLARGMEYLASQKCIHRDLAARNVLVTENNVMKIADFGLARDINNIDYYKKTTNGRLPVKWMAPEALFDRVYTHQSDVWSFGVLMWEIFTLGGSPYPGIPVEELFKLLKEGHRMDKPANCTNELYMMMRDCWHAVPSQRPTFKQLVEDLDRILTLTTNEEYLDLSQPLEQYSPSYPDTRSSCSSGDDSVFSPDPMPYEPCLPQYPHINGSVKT

Compound | IC50 [1] | FGFR1/FGFR3 IC50 ratio [2] | FGFR4/FGFR3 IC50 ratio [2] | IC50 [2] | IC50 [3] | IC50 [4]
COc1cc(OC)c(F)c(N2Cc3cnc(-c4cn(C)nc4C)cc3N(C3(C#N)CC3)C2=O)c1F [Example 91, 1-(3-(2,6-difluoro-3,5-dimethoxyphenyl)-7-(1,3-dimethyl-1H-pyrazol-4-yl)-2-oxo-3,4-dihydropyrido[4,3-d]pyrimidin-1(2H)-yl)cyclopropanecarbonitrile] | < 0.01 µM | >5 | >5 | < 0.01 µM | 0.03 to 0.2 µM | 30 to 200 nM
COc1cc(OC)c(F)c(N2Cc3cnc(-c4cn(C)nc4C)cc3N(Cc3cc(C(C)C)on3)C2=O)c1F [Example 93, 3-(2,6-difluoro-3,5-dimethoxyphenyl)-7-(1,3-dimethyl-1H-pyrazol-4-yl)-1-((5-isopropylisoxazol-3-yl)methyl)-3,4-dihydropyrido[4,3-d]pyrimidin-2(1H)-one] | < 0.01 µM | >5 | >5 | < 0.01 µM | 0.03 to 0.2 µM | 30 to 200 nM
COc1cc(OC)c(F)c(N2Cc3cnc(-c4cn(C)nc4C)cc3N(Cc3csc(C)n3)C2=O)c1F [Example 95, 3-(2,6-difluoro-3,5-dimethoxyphenyl)-7-(1,3-dimethyl-1H-pyrazol-4-yl)-1-((2-methylthiazol-4-yl)methyl)-3,4-dihydropyrido[4,3-d]pyrimidin-2(1H)-one] | < 0.01 µM | >5 | >10 | < 0.01 µM | 0.03 to 0.2 µM | 10 to 30 nM
COc1cc(OC)c(F)c(N2Cc3cnc(-c4cn(C)nc4C)cc3N(c3ccn(C)n3)C2=O)c1F [Example 100, 3-(2,6-difluoro-3,5-dimethoxyphenyl)-7-(1,3-dimethyl-1H-pyrazol-4-yl)-1-(1-methyl-1H-pyrazol-3-yl)-3,4-dihydropyrido[4,3-d]pyrimidin-2(1H)-one] | 0.01 to 0.03 µM | >5 | >5 | 0.01 to 0.03 µM | 0.03 to 0.2 µM | 30 to 200 nM
COc1cc(OC)c(F)c(N2Cc3cnc(-c4cn(C)nc4C)cc3N(c3ccc(F)c(F)c3)C2=O)c1F [Example 102, 3-(2,6-difluoro-3,5-dimethoxyphenyl)-1-(3,4-difluorophenyl)-7-(1,3-dimethyl-1H-pyrazol-4-yl)-3,4-dihydropyrido[4,3-d]pyrimidin-2(1H)-one] | 0.01 to 0.03 µM | >3 | >10 | 0.01 to 0.03 µM | 0.03 to 0.2 µM | 30 to 200 nM
COc1cc(OC)c(F)c(N2Cc3cnc(-c4cn(C)nc4C)cc3N(c3ncccn3)C2=O)c1F [Example 105, 3-(2,6-difluoro-3,5-dimethoxyphenyl)-7-(1,3-dimethyl-1H-pyrazol-4-yl)-1-(pyrimidin-2-yl)-3,4-dihydropyrido[4,3-d]pyrimidin-2(1H)-one] | 0.01 to 0.03 µM | >3 | >5 | 0.01 to 0.03 µM | 0.03 to 0.2 µM | 30 to 200 nM
CCc1cnc(N2C(=O)N(c3c(F)c(OC)cc(OC)c3F)Cc3cnc(-c4cn(C)nc4C)cc32)cn1 [Example 106, 3-(2,6-difluoro-3,5-dimethoxyphenyl)-7-(1,3-dimethyl-1H-pyrazol-4-yl)-1-(5-ethylpyrazin-2-yl)-3,4-dihydropyrido[4,3-d]pyrimidin-2(1H)-one] | 0.03 to 0.2 µM | >3 | >5 | 0.01 to 0.03 µM | 0.03 to 0.2 µM | 30 to 200 nM
COc1cc(OC)c(F)c(N2Cc3cnc(-c4cn(C)nc4C)cc3N(c3cnc(C)cn3)C2=O)c1F [Example 107, 3-(2,6-difluoro-3,5-dimethoxyphenyl)-7-(1,3-dimethyl-1H-pyrazol-4-yl)-1-(5-methylpyrazin-2-yl)-3,4-dihydropyrido[4,3-d]pyrimidin-2(1H)-one] | 0.01 to 0.03 µM | >3 | >10 | 0.01 to 0.03 µM | 0.03 to 0.2 µM | 30 to 200 nM
COc1cc(OC)c(F)c(N2Cc3cnc(-c4cn(C)nc4C)cc3N(C[C@H]3CCOC3)C2=O)c1F [Example 108, (R)-3-(2,6-difluoro-3,5-dimethoxyphenyl)-7-(1,3-dimethyl-1H-pyrazol-4-yl)-1-((tetrahydrofuran-3-yl)methyl)-3,4-dihydropyrido[4,3-d]pyrimidin-2(1H)-one] | 0.01 to 0.03 µM | >3 | >3 | 0.01 to 0.03 µM | 0.03 to 0.2 µM | 30 to 200 nM
CNS(=O)(=O)c1cccc(N2C(=O)N(c3c(F)c(OC)cc(OC)c3F)Cc3cnc(-c4cn(C)nc4C)cc32)c1 [Example 111, 3-(3-(2,6-difluoro-3,5-dimethoxyphenyl)-7-(1,3-dimethy-1H-pyrazol-4-yl)-2-oxo-3,4-dihydropyrido[4,3-d]pyrimidin-1(2H)-yl)-N-methylbenzenesulfonamide] | < 0.01 µM | >3 | >5 | < 0.01 µM | 0.03 to 0.2 µM | 10 to 30 nM
COc1cnc(N2C(=O)N(c3c(F)c(OC)cc(OC)c3F)Cc3cnc(-c4cn(C)nc4C)cc32)cn1 [Example 112, 3-(2,6-difluoro-3,5-dimethoxyphenyl)-7-(1,3-dimethyl-1H-pyrazol-4-yl)-1-(5-methoxypyrazin-2-yl)-3,4-dihydropyrido[4,3-d]pyrimidin-2(1H)-one] | < 0.01 µM | >3 | >5 | < 0.01 µM | 0.03 to 0.2 µM | 30 to 200 nM

Results, then the compound that gave them:

IC50 [1] | FGFR1/FGFR3 IC50 ratio [2] | FGFR4/FGFR3 IC50 ratio [2] | IC50 [2] | IC50 [3] | IC50 [4] | Compound
< 0.01 µM | >5 | >10 | < 0.01 µM | 0.03 to 0.2 µM | 30 to 200 nM | COc1cc(OC)c(F)c(N2Cc3cnc(-c4cn(C)nc4C)cc3N(c3ccc(CC#N)cc3)C2=O)c1F [Example 97, 2-(4-(3-(2,6-difluoro-3,5-dimethoxyphenyl)-7-(1,3-dimethyl-1H-pyrazol-4-yl)-2-oxo-3,4-dihydropyrido[4,3-d]pyrimidin-1(2H)-yl)phenyl)acetonitrile]
0.01 to 0.03 µM | >5 | >10 | 0.01 to 0.03 µM | 0.03 to 0.2 µM | 30 to 200 nM | COc1cc(OC)c(F)c(N2Cc3cnc(-c4cn(C)nc4C)cc3N(c3ccc(S(C)(=O)=O)cc3)C2=O)c1F [Example 98, 3-(2,6-difluoro-3,5-dimethoxyphenyl)-7-(1,3-dimethyl-1H-pyrazol-4-yl)-1-(4-(methylsulfonyl)phenyl)-3,4-dihydropyrido[4,3-d]pyrimidin-2(1H)-one]
< 0.01 µM | >5 | >5 | < 0.01 µM | 0.03 to 0.2 µM | 30 to 200 nM | COc1cc(OC)c(F)c(N2Cc3cnc(-c4cn(C)nc4C)cc3N(c3cccc(F)c3)C2=O)c1F [Example 99, 3-(2,6-difluoro-3,5-dimethoxyphenyl)-7-(1,3-dimethyl-1H-pyrazol-4-yl)-1-(3-fluorophenyl)-3,4-dihydropyrido[4,3-d]pyrimidin-2(1H)-one]
0.01 to 0.03 µM | >3 | >5 | 0.01 to 0.03 µM | 0.03 to 0.2 µM | 30 to 200 nM | COc1cc(OC)c(F)c(N2Cc3cnc(-c4cn(C)nc4C)cc3N(c3cc(F)cc(F)c3)C2=O)c1F [Example 103, 3-(2,6-difluoro-3,5-dimethoxyphenyl)-1-(3,5-difluorophenyl)-7-(1,3-dimethyl-1H-pyrazol-4-yl)-3,4-dihydropyrido[4,3-d]pyrimidin-2(1H)-one]
< 0.01 µM | >3 | >5 | < 0.01 µM | 0.03 to 0.2 µM | 10 to 30 nM | COc1ccc(N2C(=O)N(c3c(F)c(OC)cc(OC)c3F)Cc3cnc(-c4cn(C)nc4C)cc32)cc1 [Example 104, 3-(2,6-difluoro-3,5-dimethoxyphenyl)-7-(1,3-dimethyl-1H-pyrazol-4-yl)-1-(4-methoxyphenyl)-3,4-dihydropyrido[4,3-d]pyrimidin-2(1H)-one]
< 0.01 µM | >3 | >10 | < 0.01 µM | 0.03 to 0.2 µM | 10 to 30 nM | COc1cccc(N2C(=O)N(c3c(F)c(OC)cc(OC)c3F)Cc3cnc(-c4cn(C)nc4C)cc32)c1 [Example 109, 3-(2,6-difluoro-3,5-dimethoxyphenyl)-7-(1,3-dimethyl-1H-pyrazol-4-yl)-1-(3-methoxyphenyl)-3,4-dihydropyrido[4,3-d]pyrimidin-2(1H)-one]
< 0.01 µM | >3 | >5 | < 0.01 µM | 0.03 to 0.2 µM | 10 to 30 nM | COc1cc(OC)c(F)c(N2Cc3cnc(-c4cn(C)nc4C)cc3N(c3ccccc3F)C2=O)c1F [Example 110, 3-(2,6-difluoro-3,5-dimethoxyphenyl)-7-(1,3-dimethyl-1H-pyrazol-4-yl)-1-(2-fluorophenyl)-3,4-dihydropyrido[4,3-d]pyrimidin-2(1H)-one]
< 0.01 µM | >3 | >5 | 0.01 to 0.03 µM | 0.03 to 0.2 µM | 30 to 200 nM | COc1cc(OC)c(F)c(N2Cc3cnc(-c4cn(C)nc4C)cc3N(c3ccc(C(=O)N(C)C)cc3)C2=O)c1F [Example 113, 4-(3-(2,6-difluoro-3,5-dimethoxyphenyl)-7-(1,3-dimethyl-1H-pyrazol-4-yl)-2-oxo-3,4-dihydropyrido[4,3-d]pyrimidin-1(2H)-yl)-N,N-dimethylbenzamide]
